Patent US5206382A, “Indole derivatives, pharmaceutical compositions and methods of treating neurological and psychiatric disorders” (Fidia Georgetown Institute for the Neurosciences, priority 1991, dated 1993)
Where two headings read alike, the source gives them in different places.

Experiments:
Sprague Dawley rats = assay: Elevated X maze test; assay type: in vivo, Sprague Dawley rat; conditions: for Entries in open arms, test after 10 min injection / Entries in open arms, test after 20 min injection / Entries in open arms, test after 30 min injection: rats; for anxiolytic potency ranking / behavioral output of rats in the elevated X maze test: in words
Procedure: The elevated X maze is a behavioral test to detect anxiolytic drugs in rodents. […] The plus-maze consists of two open arms (43×8 cm) and two similarly sized enclosed arms with 9 cm high walls, arranged so that the arms of the same type are opposite each other. There is a central square of 8 cm. The apparatus is elevated to a height of 10 cm and each arm is divided into 3 squares.
Sprague Dawley rats weighing 200-250 gr. were housed in a room with a 12 hour light: 12 hour dark cycle and were allowed free access to food and water. After an i.v. injection of different indole derivatives, the rats were kept separated for 10, 20 or 30 minutes before testing. The testing period commenced when each animal was placed onto the central square of the maze. The number of entries in each arm was then recorded for 5 minutes. The maze was cleaned with water after each trial. The number of entries in the open arms provided a measure of anxiolytic activity of the drugs.

[1] = Sedation and ataxia in rats; conditions: rat, in vivo, ratio of doses, read-out: anxiolytic doses lower than the doses that produce sedation and ataxia
rats = conditions: cited from earlier work
GABAA receptor = conditions: in words; cited from earlier work
MBR [2] = conditions: in words; cited from earlier work
MBR [3] = conditions: in words; cited from earlier work; remark: listed apart in the source
GABAA receptors = conditions: in words; cited from earlier work
[4] = target: T1, BZD binding site located on the GABAA receptor (Rattus norvegicus, UniProt P18508+P62813); assay: ^3 H-FLUMAZENIL binding, crude synaptic membranes; parameters: species or system Sprague Dawley rat; conditions: 2 nM ^3 H-FLUMAZENIL, rat cerebellum membranes
T1 construct: The cerebella were removed and incubated for 20 minutes in ice cold double distilled water; from tissue; host or cells: crude synaptic membranes of Sprague Dawley rat cerebellum
T1 sequence (P62813 28-455): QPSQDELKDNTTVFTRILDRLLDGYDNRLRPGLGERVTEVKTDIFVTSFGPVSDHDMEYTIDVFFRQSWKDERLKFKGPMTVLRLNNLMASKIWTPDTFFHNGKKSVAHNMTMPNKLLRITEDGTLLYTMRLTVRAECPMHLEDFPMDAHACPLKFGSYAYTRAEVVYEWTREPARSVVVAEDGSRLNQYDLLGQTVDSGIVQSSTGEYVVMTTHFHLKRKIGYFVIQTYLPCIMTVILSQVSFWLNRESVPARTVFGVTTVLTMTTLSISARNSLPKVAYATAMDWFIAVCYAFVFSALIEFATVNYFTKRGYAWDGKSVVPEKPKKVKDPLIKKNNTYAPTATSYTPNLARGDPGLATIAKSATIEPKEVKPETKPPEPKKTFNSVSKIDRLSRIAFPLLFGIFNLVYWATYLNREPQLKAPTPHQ
T1 sequence (P18508 39-466): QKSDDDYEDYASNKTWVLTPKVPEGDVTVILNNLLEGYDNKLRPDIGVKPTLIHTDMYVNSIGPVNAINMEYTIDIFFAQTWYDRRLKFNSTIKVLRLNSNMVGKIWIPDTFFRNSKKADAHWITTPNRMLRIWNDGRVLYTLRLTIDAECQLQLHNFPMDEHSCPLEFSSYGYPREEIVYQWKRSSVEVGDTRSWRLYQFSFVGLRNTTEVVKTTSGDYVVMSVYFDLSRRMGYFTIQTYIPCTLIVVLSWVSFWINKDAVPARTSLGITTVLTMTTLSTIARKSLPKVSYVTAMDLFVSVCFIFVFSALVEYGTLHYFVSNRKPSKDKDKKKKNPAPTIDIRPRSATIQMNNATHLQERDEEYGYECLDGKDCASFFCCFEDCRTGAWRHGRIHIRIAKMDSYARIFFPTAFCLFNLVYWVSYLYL
Procedure: (§1) Crude Synaptic Membrane Preparation: Sprague Dawley rats (200-250 gr.) were killed by decapitation. The cerebella were removed and incubated for 20 minutes in ice cold double distilled water after homogenization with Polytron. The homogenate was centrifuged at 18,000 xg at 4° C. for 10 minutes. The pellet was suspended in ice-cold buffer 50 mM Na/KPO4(pH 7.4) and centrifuged at 18,000 xg at 4° C. for 10 minutes. After two other centrifugations, the membranes were suspended in 5 ml of buffer and the proteins were measured.
(§2) The membranes were diluted with 50 mM Na/KPO4 buffer (pH 7.4) to a concentration of 150 μg of protein/ml, and 150 μl aliquots of the suspension were incubated with 50 μl of the different ligands to be tested: ^3 H-ZOLPIDEM(2 nM), ^3 H-FLUMAZENIL (2 nM), ^3 H-GABA(10 nM), ^3 H-MK 801(5 nM), ^3 H-KETANSERIN(1 nM), ^3 H-GLYCINE(20 nM), ^3 H-SPIPERONE(1 nM), ^3 H-AMPA(10 nM), ^3 H-3-PPP(1 nM), and ^3 H-NALOXONE(1 nM). Non-specific binding was assessed by displacing with 10 to 1000/μM of cold ligand.

[5] = target: T2, MBR (mitochondrial benzodiazepine recognition site) (Rattus norvegicus, UniProt P16257); assay: Displacement of ^3 H-RO5-4864 from mitochondrial BZD recognition site (MBR); assay type: binding, Sprague Dawley rat; conditions: displacement of 1 nM ^3 H-RO5-4864, rat mitochondria; range in parentheses
T2 construct: Brain and adrenal glands were removed and homogenized with Polytron; from tissue; host or cells: mitochondrial fraction of Sprague Dawley rat brain and adrenal glands
Procedure: (§3) Mitochondrial Preparation: Sprague Dawley rats (200-250 gr.) were killed by decapitation. Brain and adrenal glands were removed and homogenized with Polytron for 15 minutes in ice cold buffer (10 mM Na/KPO4, 0.32M sucrose, pH 7.4). The homogenate was centrifuged for 15 minutes at 6,500 xg at 4° C. The resulting supernatant was centrifuged for 15 minutes at […] at 4° C. The pellet was suspended in buffer (20 times) by gentle homogenization and centrifuged at 10,000 xg at 4° C. for 15 minutes. The washed mitochondrial pellet was stored at -70° C.
(§4) For the binding assay the mitochondrial fraction was diluted with 50 mM Na/KPO4 buffer (pH 7.4) to give a final protein concentration of […] in 100 μl buffer. This suspension was incubated with 1 nM of ^3 H PK-11195 or ^3 H RO 5-4864 (50 μl) with or without 10/μM unlabeled PK-11195 or RO 5-4864 to assess the extent of total and non-specific binding. Different amounts of indole derivatives were added to the incubation medium in a volume of 50 μl. After incubation for 60 minutes at 4° C., samples were filtered and the radioactivity was measured in a scintillation counter.

[6] = target: T2, MBR (mitochondrial benzodiazepine recognition site); assay: Displacement of ^3 H-PK11195 from mitochondrial BZD recognition site (MBR); assay type: binding, Sprague Dawley rat; conditions: for IC50: displacement of 1 nM ^3 H-PK11195, rat mitochondria, range in parentheses; for ^3 H-PK11195 / ^3 H-RO5-4864: ratio of the two IC50 values
Procedure: as §3, §4

[7] = target: ^3 H-GABA binding (crude synaptic membrane); assay: ^3 H-GABA binding, crude synaptic membranes; parameters: species or system Sprague Dawley rat; conditions: 10 nM ^3 H-GABA, rat cerebellum membranes
Procedure: as §1
as §2, with “ligand. The different indole derivatives were added in a volume of 50 μl in a concentration varying from 10^-9 to 10^-3 M. The results are reported in Table I hereinbelow.” for “ligand.”

[8] = tested on: mitochondrial pregnenolone formation, C6-2B glioma cells; assay: Pregnenolone formation in glial mitochondria (C6-2B glioma cells); assay type: biochemical; conditions: for Effective concentration, maximal / EC50: C6 glial cell mitochondria, 15 minutes at 37° C.; for EC50: read-out: Effective concentration, 50%; for Stimulation %: pregnenolone formation, increase over the control
Procedure: The mixture was preincubated for 5 minutes at 37° C. The incubation mixture was extracted with 5 ml chloroform/methanol (2:1, vol/vol), and the organic phase was evaporated to dryness. Pregnenolone was measured by a specific radioimmunoassay using an antibody obtained from Radioassay Systems Laboratories, Carson, Calif.

[9] = target: T3, ^3 H-ZOLPIDEM binding (crude synaptic membrane) (Rattus norvegicus, UniProt P18508+P62813); assay: ^3 H-ZOLPIDEM binding, crude synaptic membranes; parameters: species or system Sprague Dawley rat; conditions: 2 nM ^3 H-ZOLPIDEM, rat cerebellum membranes
T3 construct: from tissue; host or cells: crude synaptic membranes of Sprague Dawley rat cerebellum
T3 sequence (P62813 28-455): as the sequence (P62813 28-455) above
T3 sequence (P18508 39-466): as the sequence (P18508 39-466) above
Procedure: as §1
as §2, with “ligand. The different indole derivatives were added in a volume of 50 μl in a concentration varying from 10^-9 to 10^-3 M. The results are reported in Table I hereinbelow.” for “ligand.”

## CCCCCCN(CCCCCC)C(=O)Cc1c(-c2ccc(Cl)cc2)[nH]c2ccc(Cl)cc12 [compound 43]
Sprague Dawley rats; 0.5 mg/kg i.v.
  Entries in open arms, test after 10 min injection: 4
  Entries in open arms, test after 20 min injection: 2
  Entries in open arms, test after 30 min injection: 1
Sprague Dawley rats
  anxiolytic potency ranking: most potent anxiolytic drugs
  behavioral output of rats in the elevated X maze test: increase the behavioral output
[1]
  selectivity ratio: 100 to 500

## CN1C(=O)CN=C(c2ccc(Cl)cc2)c2cc(Cl)ccc21 [4-Cl-Diazepam]
rats; rats, small doses, partially resistant to Flumazenil, sensitive to PK-11195
  conflict response: proconflict response
GABAA receptor
  binding to the GABAA receptor / BZD recognition sites on GABAA receptors: binds to the GABAA receptor
MBR [2]
  affinity for the MBR: high affinity
MBR [3]
  cholesterol influx into mitochondria and formation of pregnenolone: facilitates cholesterol influx into mitochondria and the formation of pregnenolone

## C[C@]12CC[C@@H](O)C[C@@H]1CC[C@@H]1[C@@H]2CC[C@]2(C)[C@@H](C(=O)CO)CC[C@@H]12 [3α,21-dihydroxy-5α-pregnan-20-one(THDOC), 3α,21-dihydroxy-5α-pregnan-20-one]
GABAA receptors
  modulation of GABA action: positively modulate

## CCCN(CCC)C(=O)Cc1c(-c2ccc(Cl)cc2)nc2ccc(Cl)cn12 [Alpidem]
rats; dose-related, reduced by both PK-11195 and Flumazenil
  conflict response: anticonflict (anxiolytic) action
GABAA receptor
  binding to the GABAA receptor / BZD recognition sites on GABAA receptors: high affinity
MBR [2]
  affinity for the MBR: high affinity
MBR [3]
  cholesterol influx into mitochondria and formation of pregnenolone: facilitates cholesterol influx into mitochondria and the formation of pregnenolone

## CC(=O)[C@H]1CC[C@H]2[C@@H]3CC[C@H]4C[C@H](O)CC[C@]4(C)[C@H]3CC[C@]12C [3-α-hydroxy-5α-pregnan-20-one(3-αOH-DHP), 3-α-hydroxy-5α-pregnan-20-one]
GABAA receptors
  modulation of GABA action: positively modulate

## CCCN(CCC)C(=O)Cc1c(-c2ccccc2)[nH]c2ccccc12 [Compound No. 2]
Sprague Dawley rats; 20 mg/kg i.v.
  Entries in open arms, test after 10 min injection: 0
  Entries in open arms, test after 20 min injection: 0
  Entries in open arms, test after 30 min injection: 0
Sprague Dawley rats; 200 mg/kg i.v.
  Entries in open arms, test after 10 min injection: 4
  Entries in open arms, test after 20 min injection: 0
  Entries in open arms, test after 30 min injection: 0
Sprague Dawley rats
  behavioral output of rats in the elevated X maze test: increase the behavioral output
[4]
  IC50: > 1000 nM
[5]
  IC50: 22.5 nM
[6]
  IC50: 32.5 nM
  ^3 H-PK11195 / ^3 H-RO5-4864: 1.4
[7]
  IC50: > 1000 nM
[8]
  Effective concentration, maximal: 10^-9 M
  EC50: 0.33 nM
  Stimulation %: 200%
[9]
  IC50: > 1000 nM

## CC(=O)[C@H]1CC[C@H]2[C@@H]3CC=C4C[C@@H](OS(=O)(=O)O)CC[C@]4(C)[C@H]3CC[C@]12C [pregnenolone sulphate]
GABAA receptors
  modulation of GABA action: negatively modulate

## CCCCCCN(CCCCCC)C(=O)Cc1c(-c2ccc(F)cc2)[nH]c2ccccc12 [compound 27]
Sprague Dawley rats; 0.5 mg/kg i.v.
  Entries in open arms, test after 10 min injection: 5
  Entries in open arms, test after 20 min injection: 2
  Entries in open arms, test after 30 min injection: 1
Sprague Dawley rats
  anxiolytic potency ranking: most potent anxiolytic drugs
  behavioral output of rats in the elevated X maze test: increase the behavioral output
[1]
  selectivity ratio: 100 to 500
[4]
  IC50: > 1000 nM
[5]
  IC50: 20 nM
[6]
  IC50: 18 nM
  ^3 H-PK11195 / ^3 H-RO5-4864: 0.9
[7]
  IC50: > 1000 nM
[8]
  Effective concentration, maximal: 10^-7 M
  EC50: 3.3 nM
  Stimulation %: 300%
